From patent publication US20260138981A1, “DIHYDROFOLATE REDUCTASE INHIBITORS FOR ANTI-BIOTIC RESISTANT INFECTIONS” (THE TRUSTEES OF PRINCETON UNIVERSITY, priority 2022, published 2026)

Experiments:
[1] = tested on: P. aeruginosa PA14 nfxB T39P mutants; assay: Cross resistance of fluorofolin-resistant mutant; assay type: cell-based; details: 2×MIC
Description: NfxB is a transcriptional regulator protein that represses expression of the MexCD-OprN efflux pump.

[2] = tested on: folate metabolism in P. aeruginosa; assay: Metabolomics (LC-MS metabolite abundance); assay type: cell-based; details: PA14, 2×MIC for 15 min, vs solvent control; P=0.0186 and 0.0196
Protocol: Metabolite abundance was quantified in comparison to the solvent only control. Data represents mean±SD for 3 biological replicates. P values were calculated using unpaired t-test using Prism 9 (P values≤0.05)
To test the ability of fluorofolin to inhibit P. aeruginosa DHFR in vivo, metabolomics were performed. As a positive control for DHFR inhibition, we turned to TMP.
Overnight P. aeruginosa PA14 cultures were diluted 1:150 in Gutnick Minimal Media and grown to early-mid exponential phase (OD600=0.4-0.6).
LC-MS analysis of metabolites was performed on Orbitrap Exploris 240 mass spectrometer coupled with hydrophilic interaction liquid chromatography (HILIC)^64. […] Flow rate was 0.15 mL/min, and column temperature was set at 25° C. […] The orbitrap resolution was 180,000 at m/z of 200. The maximum injection time was 200 ms, and the automatic gain control (AGC) target was 1000%. Raw mass spectrometry data were converted to mzXML format by MSConvert (ProteoWizard). Pick-peaking was done on El Maven (v0.8.0, Elucidata).

[3] = tested on: PA14 mutants with disruptions in mexA, mexB and oprM; assay: MIC against MexAB-OprM transposon mutants; assay type: cell-based, P. aeruginosa; details: oprM transposon mutants vs wildtype PA14
Protocol: FIG. 1I is the minimum inhibitory concentration of fluorofolin or trimethoprim against transposon mutants for each component of the MexAB-OprM efflux pump. MIC against wildtype PA14 was calculated to control for each drug stock. MIC values are representative of two independent replicates.
P. aeruginosa PA14 transposon mutants were generated by the Ausubel Lab (http://ausubellab.mgh.harvard.edu/cgi-bin/pa14/home.cgi). The MICs of fluorofolin and TMP against strains with disrupted MexA, MexB, and OprM were determined as above and compared to the parental strain. As transposon mutants in MexB were represented twice in this collection, the MIC was confirmed across both mutant strains.

P. aeruginosa PA14 = assay: MIC in LB Broth; assay type: cell-based; details: Pseudomonas aeruginosa; P. aeruginosa PA14, compound alone
Protocol: The minimum inhibitory concentration is defined as the lowest concentration of antibiotic at which no visible growth was detected after 16 hours at 37° C. Overnight cultures were diluted 1:150 in LB Broth and added to a 96-well plate. Antibiotics were serially diluted 1:2 and added to columns of the 96-well plate and grown at 37° C. with continuous shaking. Cell growth was measured by optical density (OD600). MIC assays were performed in either BioTek Synergy HT (Winooski, VT) or Tecan InfiniteM200 Pro (Männedorf, CH) microplate readers.

SMILES | resistance of nfxB T39P mutants [1] | abundance of AICAR and dUMP [2] | change of MIC in efflux pump mutants [3] | MIC (P. aeruginosa PA14) [µg/mL]
O=C(O)c1cn(C2CC2)c2cc(N3CCNCC3)c(F)cc2c1=O [ciprofloxacin] | cross-resistant | – | – | –
COc1cc(Cc2cnc(N)nc2N)cc(OC)c1OC [trimethoprim, reference compound] | – | significant upregulation | large reductions in MIC | 125
